Results published in PubChem BioAssay (NCI).
Where “and” joins values, the source holds several entries; their conditions need not be identical. Equal values may be shown once.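 Five compound concentrations were applied to cells in 96-well plates for 48 hours; endpoints were derived by simple linear interpolation of the resulting dose-response curve. GI50 = concentration required for 50% inhibition of growth. TGI is the concentration that stops growth completely.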

Legend:
Assay in all cases: NCI anticancer screen, dose series, 48 h
786-0 renal = tested on: 786-0 renal
A549 NSCLC = tested on: A549 NSCLC
ACHN renal = tested on: ACHN renal
CCRF-CEM leukemia = tested on: CCRF-CEM leukemia
IGROV1 ovarian = tested on: IGROV1 ovarian
SF-295 CNS = tested on: SF-295 CNS
SK-OV-3 ovarian = tested on: SK-OV-3 ovarian
HOP-62 NSCLC = tested on: HOP-62 NSCLC
BT-549 breast = tested on: BT-549 breast
MDA-MB-435 = tested on: MDA-MB-435

| Compound | TGI (786-0 renal) | TGI (A549 NSCLC) | TGI (ACHN renal) | TGI (CCRF-CEM leukemia) | TGI (IGROV1 ovarian) | TGI (SF-295 CNS) | TGI (SK-OV-3 ovarian) [µM] | TGI (HOP-62 NSCLC) | TGI (BT-549 breast) [µM] | TGI (MDA-MB-435) [µM] | GI50 (786-0 renal) [µM] | GI50 (A549 NSCLC) [µM] | GI50 (ACHN renal) [µM] | GI50 (BT-549 breast) [µM] | GI50 (CCRF-CEM leukemia) [µM] | GI50 (HOP-62 NSCLC) [µM] | GI50 (MDA-MB-435) [µM] | GI50 (SF-295 CNS) [µM] | GI50 (SK-OV-3 ovarian) [µM] |
| --- | --- | --- | --- | --- | --- | --- | --- | --- | --- | --- | --- | --- | --- | --- | --- | --- | --- | --- | --- |
| CCOc1cccc2c1N[S@@](=O)S2 | > 100 µM | > 100 µM | > 100 µM | > 100 µM | > 100 µM | > 100 µM | > 100 | – | – | – | – | – | – | – | – | – | – | – | – |
| N=c1c2ccccc2sc2nc3ccccc3n12 | > 100 µM | > 100 µM | > 100 µM | > 100 µM | > 100 µM | > 100 µM | > 100 | > 100 µM | – | – | – | – | – | – | – | – | – | – | – |
| CC(/C=C/C(O)=C1/C(=O)CNC1=O)=C\[C@@H](C)[C@H]1O[C@@]2(C)O[C@H](C(=O)[C@@H]3O[C@@]32C)[C@@H]1C | 36.5 µM | – | 41.9 µM | > 100 µM | 44.9 µM | – | 46.8 | 43.1 µM | 36.3 | 83.1 | – | – | – | – | – | – | – | – | – |
| CN(C)c1ccc(/C=C(\NC(=O)c2ccccc2)c2nc3ccc4c(c3[nH]2)C(=O)c2ccccc2C4=O)cc1 | > 100 µM | > 100 µM | – | > 100 µM | > 100 µM | > 100 µM | > 100 | > 100 µM | – | – | – | – | – | – | – | – | – | – | – |
| NC(=O)c1cccnc1 | > 100 µM | > 100 µM | > 100 µM | > 100 µM | – | > 100 µM | > 100 | > 100 µM | > 100 | > 100 | > 100 | > 100 | > 100 | > 100 | 5.99 | > 100 | > 100 | > 100 | > 100 |
| COc1ccc(/C=C2\CCC(CCN(C)C)(C3=CCCC3)C2=O)cc1 (centres undefined) | 28.7 µM | 42.9 µM | 31.2 µM | 53 µM | 33.2 µM | 33.4 µM | – | 36 µM | – | – | – | – | – | – | – | – | – | – | – |
| COc1ccc(/C=C(\NC(=O)c2ccccc2)c2nc3ccccc3[nH]2)cc1OC | > 100 µM | > 100 µM | > 100 µM | > 100 µM | > 100 µM | > 100 µM | > 100 | > 100 µM | – | – | – | – | – | – | – | – | – | – | – |
| COc1ccc2c(c1)C(=O)/C(=C/c1cccc(OCC(=O)Nc3nc(C)c(C)s3)c1)O2 | 0.0545 µM | 2.41 µM | 0.779 µM | 0.0337 µM | – | 26.3 µM | 25.6 | 0.0238 µM | 7.63 | 13.3 | 0.0238 | 0.19 | 0.139 | 2.37 | 0.0168 | 0.0107 | 2.95 | 12.7 | 12.8 |
| CCOC(=O)C1Cc2ccc3c4c(ccc(c24)C1)CC(C(=O)OCC)C3 | > 100 µM | > 100 µM | > 100 µM | > 100 µM | > 100 µM | > 100 µM | > 100 | > 100 µM | – | – | – | – | – | – | – | – | – | – | – |
| COC(=O)C(=O)C(CC(=O)Nc1ccc(C)cc1)C(=O)OC (centres undefined) | > 100 µM | > 100 µM | > 100 µM | > 100 µM | > 100 µM | > 100 µM | > 100 | > 100 µM | – | – | – | – | – | – | – | – | – | – | – |
| COc1ccc(/C=C2/C(=O)N(C(=O)c3ccccc3O)N=C2C)cc1 | > 100 µM | > 100 µM | > 100 µM | > 100 µM | 0.0784 µM | > 100 µM | > 100 | – | 98.1 | > 100 | – | – | – | – | – | – | – | – | – |
| C#CCN(N=O)C(=O)ON1C(=O)CCC1=O | > 100 µM | > 100 µM | > 100 µM | > 100 µM | > 100 µM | > 100 µM | > 100 | > 100 µM | – | – | – | – | – | – | – | – | – | – | – |
| COc1cc(C(=O)N[C@H]2CCc3cc(OC)c(OC)c(OC)c3-c3ccc(SC)c(=O)cc32)cc(OC)c1OC | 25 µM and 16.3 µM | 25 µM and > 100 µM | 25 µM and > 100 µM | 25 µM and > 100 µM | 25 µM and 62.7 µM | 0.0684 µM and 0.0328 µM | 0.0203 | 25 µM and > 100 µM | – | – | – | 0.017 | 0.0804 | – | – | 0.47 | – | – | – |
| COC(=O)c1cc(=O)nc2cc3cccccc3n12 | > 100 µM | > 100 µM | > 100 µM | > 100 µM | > 100 µM | > 100 µM | > 100 | > 100 µM | – | – | – | – | – | – | – | – | – | – | – |
| C1=Cc2nc1c(-c1ccccc1)c1ccc([nH]1)c(-c1ccccc1)c1nc(c(-c3ccccc3)c3ccc([nH]3)c2-c2ccccc2)C=C1 | > 100 µM | > 100 µM | > 100 µM | > 100 µM | > 100 µM | > 100 µM | > 100 | > 100 µM | – | – | – | – | – | – | – | – | – | – | – |
| COC(=O)C(C(=O)C(=O)Nc1ccc(C)cc1C)c1csc(-n2nc(-c3ccccc3)cc2-c2ccccc2)n1 (centres undefined) | > 100 µM | > 100 µM | > 100 µM | > 100 µM | > 100 µM | – | > 100 | > 100 µM | – | – | – | – | – | – | – | – | – | – | – |
| C=C1C(=O)C23[C@H](O)C1CC[C@H]2[C@]12COC3(O)[C@@H](O)[C@@H]1C(C)(C)CC[C@@H]2O | 24 µM | 44.7 µM | 30.2 µM | 95 µM | 38.7 µM | 32.2 µM | 31 | 36.1 µM | – | – | – | – | – | – | – | – | – | – | – |
| COc1ccccc1-c1cc(=O)c2cc(C)c(C)c(C(=O)O)c2o1 | > 100 µM | > 100 µM | > 100 µM | > 100 µM | > 100 µM | > 100 µM | > 100 | > 100 µM | – | – | – | – | – | – | – | – | – | – | – |
| OC1=CN=COc2ccccc21 | > 100 µM | > 100 µM | > 100 µM | > 100 µM | > 100 µM | > 100 µM | > 100 | > 100 µM | – | – | – | – | – | – | – | – | – | – | – |
| CCCCCCC(O)CC[C@H]1CCC[C@@H](C)N1 (some centres undefined) | < 10 µM | > 100 µM | > 100 µM | > 100 µM | > 100 µM | > 31.6 µM | > 100 | > 31.6 µM | – | – | – | – | – | – | – | – | – | – | – |
| C[N+](C)(C)CC1CCCCC1=O (centres undefined) | > 100 µM | > 100 µM | 34.4 µM | 20.2 µM | > 100 µM | > 100 µM | > 100 | > 100 µM | – | – | – | – | – | – | – | – | – | – | – |
| O=c1c2c(-c3ccccc3)c3ccccc3nc2cnn1-c1ccccc1 | > 100 µM | > 100 µM | > 100 µM | > 100 µM | > 100 µM | > 100 µM | > 100 | > 100 µM | – | – | – | – | – | – | – | – | – | – | – |
| CCOc1ccc(N=C(NC(=O)c2ccccc2)SC)cc1 | > 100 µM | > 100 µM | > 100 µM | > 100 µM | > 100 µM | > 100 µM | > 100 | > 100 µM | – | – | – | – | – | – | – | – | – | – | – |
